Experiment in all cases: absorbance […] nm, Eadie-Hofstee plot
Type in all cases: biochemical, Ganoderma lucidum

The test system of assay [1] is T1, Glac L4.
T1 construct: gene GL16398; native secreted isozyme, copper-induced culture, native-PAGE purified; 40-66 kDa range for all isozymes, described as multimeric; gene not assigned (GL tags are of another genome strain)
To be noted: 0.1 M sodium acetate pH 5.0 (methods; table title says optimal pH); 0.02-0.5 mM substrate; read-out: ABTS / Km.

The test system of assay [2] is T2, Glac L5.
T2 construct: gene GL16398; native secreted isozyme, copper-induced culture, native-PAGE purified; 40-66 kDa range for all isozymes, described as multimeric; gene not assigned (GL tags are of another genome strain)
The conditions noted are these: 0.1 M sodium acetate pH 5.0 (methods; table title says optimal pH); 0.02-0.5 mM substrate; read-out: ABTS / Km.

Assay [3] relates to T3, Glac L2.
T3 construct: gene GL16398; native secreted isozyme, copper-induced culture, native-PAGE purified; 40-66 kDa range for all isozymes, described as multimeric; gene not assigned (GL tags are of another genome strain)
To be noted: 0.1 M sodium acetate pH 5.0 (methods; table title says optimal pH); 0.02-0.5 mM substrate; read-out: ABTS / Km.

Assay [4] has as its system T4, Glac L3.
T4 construct: gene GL16398; native secreted isozyme, copper-induced culture, native-PAGE purified; 40-66 kDa range for all isozymes, described as multimeric; gene not assigned (GL tags are of another genome strain)
To be noted: 0.1 M sodium acetate pH 5.0 (methods; table title says optimal pH); 0.02-0.5 mM substrate; read-out: ABTS / Km.

Assay [5] concerns T4, Glac L3. To be noted: citrate-phosphate pH 4.0 (methods; table title says optimal pH); 0.1-0.8 mM substrate; read-out: O-tolidine / Km.
Assay [6] has as its system T2, Glac L5. To be noted: citrate-phosphate pH 4.0 (methods; table title says optimal pH); 0.1-0.8 mM substrate; read-out: O-tolidine / Km.
The test system of assay [7] is T3, Glac L2. The conditions noted are these: citrate-phosphate pH 4.0 (methods; table title says optimal pH); 0.1-0.8 mM substrate; read-out: O-tolidine / Km.
The test system of assay [8] is T1, Glac L4. To be noted: citrate-phosphate pH 4.0 (methods; table title says optimal pH); 0.1-0.8 mM substrate; read-out: O-tolidine / Km.
The subject of assay [9] is T4, Glac L3. To be noted: citrate-phosphate pH 4.0 (methods; table title says optimal pH); 0.5-3.0 mM substrate; read-out: Guaiacol / Km.
In assay [10] the test system is T2, Glac L5. To be noted: citrate-phosphate pH 4.0 (methods; table title says optimal pH); 0.5-3.0 mM substrate; read-out: Guaiacol / Km.
Assay [11] relates to T1, Glac L4. To be noted: citrate-phosphate pH 4.0 (methods; table title says optimal pH); 0.5-3.0 mM substrate; read-out: Guaiacol / Km.
In assay [12] the test system is T3, Glac L2. The conditions noted are these: citrate-phosphate pH 4.0 (methods; table title says optimal pH); 0.5-3.0 mM substrate; read-out: Guaiacol / Km.

Our source for the Km values is publication PMC5397484, “Gel-Based Purification and Biochemical Study of Laccase Isozymes from Ganoderma sp. and Its Role in Enhanced Cotton Callogenesis” (Frontiers in Microbiology, 2017).

Where two headings read alike, the source gives them in different places.

As for `CCn1c(=NN=c2sc3cc(S(=O)(=O)O)ccc3n2CC)sc2cc(S(=O)(=O)O)ccc21` [ABTS, 2,2′-azino-bis(3-ethylbenzothiazoline-6-sulfonic acid)], the Km in the assay on Glac L4 [1] stood at 50 µM; with Glac L5 [2] it was 15 µM; in the assay on Glac L2 [3], 83 µM; in the assay on Glac L3 [4], 81 µM.
With `Cc1cc(-c2ccc(N)c(C)c2)ccc1N` [O-tolidine], the Km with Glac L3 [5] came to 507 µM; in the assay on Glac L5 [6], 78 µM; in the assay with Glac L2 [7] it was 724 µM; in the assay on Glac L4 [8] it was 365 µM.
Turning to `COc1ccccc1O` [guaiacol], the Km was found to be 80 µM in the assay on Glac L3 [9], 126 µM in the assay on Glac L5 [10], 96 µM in the assay on Glac L4 [11] and 115 µM in the assay on Glac L2 [12].
